In publication PMC11117723, “Benzene with Alkyl Chains Is a Universal Scaffold for Multivalent Virucidal Antivirals” (ACS Central Science, 2024):
Like-named read-outs stand apart in the source and are kept apart here.

Tests used:
[1] = Vero cell cytotoxicity (MTS assay); assay type: cell-based; settings: African green monkey, Vero cells, read-out: CC50 (95% CI), Vero cells
SARS-CoV-2 (Alpha) = experiment: SARS-CoV-2 (alpha strain) inhibition plaque assay on Vero E6 cells; assay type: cell-based; settings: Severe acute respiratory syndrome coronavirus 2, Vero C1008, read-out: SARS-CoV-2 (Alpha) EC50 (95% CI)
HSV-2 = HSV-2 inhibition (dose response) plaque assay on Vero cells; assay type: cell-based; settings: for EC50: Vero cells, virus pre-incubated with compound 1 h, read-out: HSV-2 EC50 (95% CI)
in vitro [2] = settings: African green monkey
HIV-1 (YU-2) = HIV-1 (YU-2) inhibition assay on TZM-bl cells (luciferase); assay type: cell-based; settings: Human immunodeficiency virus 1, read-out: HIV-1 EC50 (95% CI)
[3] = TZM-bl cell cytotoxicity (WST-1); settings: human
[4] = Raji cell cytotoxicity (Zombie NIR flow cytometry); settings: human
[5] = HEK293T cell cytotoxicity (Zombie NIR flow cytometry); settings: human
SARS-CoV-2 (Omicron) = experiment: SARS-CoV-2 Omicron dose-response assay on Vero E6 cells; assay type: cell-based; settings: Severe acute respiratory syndrome coronavirus 2, Vero C1008, read-out: SARS-CoV-2 (Omicron) EC50 (95% CI)
in vitro [6] = settings: dog
GFP-EBV B95-8 (EBV) = experiment: microbe, parasite or virus in culture; assay type: cell-based, Epstein–Barr virus (EBV); settings: human gammaherpesvirus 4, read-out: EBV EC50 (95% CI)
GFP-KSHV (KSHV) = experiment: microbe, parasite or virus in culture; assay type: cell-based, Kaposi’s sarcoma-associated herpesvirus (KSHV); settings: Human gammaherpesvirus 8, HEK-293T, read-out: KSHV EC50 (95% CI)
SARS-CoV-2 Alpha = assay type: in vivo, Syrian hamster
[7] = tested on: Influenza A/Netherlands/2009 (H1N1); experiment: H1N1 inhibition assay on MDCK cells (ICC); assay type: cell-based; settings: Influenza A virus, read-out: H1N1 EC50 (95% CI)
SARS-CoV-2 = SARS-CoV-2 Syrian hamster model, intranasal instillation from 12 h; assay type: in vivo; settings: B3C9S solution by intranasal instillation, 1.5, 4.5, 6 mg/kg/day from 12 h
Protocol: Control Control *** Control
80 Placebo 80 Placebo 80 Placebo
Days post infection Days post infection Days post infection
Figure S10. Body weight of Syrian hamsters treated with 1.5mg/kg/day B3C9S (a), 4.5mg/kg/day B3C9S (b), 6mg/kg/day B3C9S (c) by intranasal instillation. 25 female Syrian hamsters were randomly assigned into five groups (control, placebo and three doses of B3C9S), each containing 5 hamsters. At day 0, each hamster was weighed and inoculated intranasally with 100 μl PBS (control) or 100 μl […] SARS-CoV-2 (placebo and B3C9S). Starting from 12 h after the inoculation, the hamsters in the placebo group and the […]
μg/μl) every day, respectively. The body weight of each hamster was measured every 12 h.
The weight measurements of each hamster were normalized by the initial weight and plotted against time post infection. The error bars represent the means ± standard deviations (n = 5). The asterisks represent the p value (*, <0.05; **, <0.01; ***, <0.001) calculated by two-tailed unpaired t test.
(also on this page, place not known: Body weight (%) Body weight (%) Body weight (%))

Vero cells = experiment: Vero cell cytotoxicity (MTS assay); assay type: cell-based; settings: 24 h, read-out: CC50 (95% CI), Vero cells
TZM-bl cells = experiment: TZM-bl cell cytotoxicity (WST-1); settings: read-out: CC50 (95% CI), TZM-bl cells; HIV-1 line
Vero E6 cells = settings: read-out: CC50 (95% CI), Vero E6 cells, SARS-CoV-2 (Alpha) line

O=c1n(CCSCCCCCCCCCOS(=O)(=O)O)c(=O)n(CCSCCCCCCCCCOS(=O)(=O)O)c(=O)n1CCSCCCCCCCCCOS(=O)(=O)O [A3C9S]
CC50 at 24 h [1]: 221 µM
EC50 (SARS-CoV-2 (Alpha)): 23.1 µM
EC50 (HSV-2; Human alphaherpesvirus 2, Vero): 20.1 µM
CC50 (in vitro [2]): 39.5 µM

O=S(=O)(O)OCCCCCCSCc1cc(CSCCCCCCOS(=O)(=O)O)cc(CSCCCCCCOS(=O)(=O)O)c1 [B3C6S]
CC50 at 24 h [1]: > 530 µM
EC50 (HIV-1 (YU-2)): 5.47 µM
EC50 (SARS-CoV-2 (Alpha)): 195 µM
EC50 (HSV-2; Human alphaherpesvirus 2, Vero): 78.4 µM
CC50 (in vitro [2]): > 530 µM
CC50 at 6 h ([3]; TZM-bl cells): > 133 µM

O=S(=O)(O)OCCCCCCCCCSCc1cc(CSCCCCCCCCCOS(=O)(=O)O)cc(CSCCCCCCCCCOS(=O)(=O)O)c1 [B3C9S]
CC50 at 2 days ([4]; Raji cells): > 341 µM
CC50 at 24 h [1]: 331 µM
CC50 at 2 days ([5]; HEK293T cells): 162 µM
EC50 (HIV-1 (YU-2)): 6.34 µM
EC50 (SARS-CoV-2 (Omicron)): 1.37 µM
EC50 (SARS-CoV-2 (Alpha)): 1.1 µM
CC50 (in vitro [6]): 16.6 µM
EC50 (GFP-EBV B95-8 (EBV)): 46.5 µM
EC50 (GFP-KSHV (KSHV)): 48.2 µM
efficacy with aerosol treatment compared with B6C11S (SARS-CoV-2 Alpha; hamster, in vivo): less effective
viral titer (viral RNA) in the lungs (SARS-CoV-2 Alpha; hamster, in vivo): significantly decreased the viral titer
viral titer (viral RNA) in the oral swab (SARS-CoV-2 Alpha; hamster, in vivo): significantly reduced
viral titer in oral swab and lung tissues vs untreated (SARS-CoV-2 Alpha; hamster, in vivo): No statistical difference
EC50 (HSV-2; Human alphaherpesvirus 2, Vero): 7.9 µM
EC50 (HSV-2): 7.92 µM
EC50 [7]: 5.11 µM
CC50 (in vitro [2]): 14.7 µM
CC50 at 6 h ([3]; TZM-bl cells): > 113 µM
body weight loss of infected hamsters (SARS-CoV-2): reduced the body weight loss

O=S(=O)(O)OCCCCCCCCCCCSCc1cc(CSCCCCCCCCCCCOS(=O)(=O)O)cc(CSCCCCCCCCCCCOS(=O)(=O)O)c1 [B3C11S]
CC50 at 24 h [1]: 384 µM
EC50 (HIV-1 (YU-2)): 6.44 µM
EC50 (SARS-CoV-2 (Alpha)): 0.84 µM
EC50 (HSV-2; Human alphaherpesvirus 2, Vero): 26.2 µM
CC50 (in vitro [2]): 11.2 µM
CC50 at 6 h ([3]; TZM-bl cells): > 100 µM

O=S(=O)(O)OCCOCCOCCOCCSCc1cc(CSCCOCCOCCOCCOS(=O)(=O)O)cc(CSCCOCCOCCOCCOS(=O)(=O)O)c1 [B3PEG4S]
EC50 (SARS-CoV-2 (Alpha)): > 400 µM
HSV-2 inhibition at 400 μM (HSV-2; 400 μM): No inhibition
EC50 (HSV-2; Human alphaherpesvirus 2, Vero): > 400 µM

O=S(=O)(O)OCCCCCCCCCSCc1c(CSCCCCCCCCCOS(=O)(=O)O)c(CSCCCCCCCCCOS(=O)(=O)O)c(CSCCCCCCCCCOS(=O)(=O)O)c(CSCCCCCCCCCOS(=O)(=O)O)c1CSCCCCCCCCCOS(=O)(=O)O [B6C9S]
CC50 (Vero cells): 42.7 µM
CC50 (TZM-bl cells): 10.5 µM
CC50 (Vero E6 cells): 3.9 µM

CCc1c(CSCCCCCCOS(=O)(=O)O)c(CC)c(CSCCCCCCOS(=O)(=O)O)c(CC)c1CSCCCCCCOS(=O)(=O)O [BET3C6S]
CC50 at 24 h [1]: > 477 µM
EC50 (HIV-1 (YU-2)): 8.22 µM
EC50 (SARS-CoV-2 (Alpha)): > 119 µM
EC50 (HSV-2; Human alphaherpesvirus 2, Vero): 28.5 µM
CC50 (in vitro [2]): 451 µM
CC50 at 6 h [3]: > 119 µM

CCc1c(CSCCCCCCCCCOS(=O)(=O)O)c(CC)c(CSCCCCCCCCCOS(=O)(=O)O)c(CC)c1CSCCCCCCCCCOS(=O)(=O)O [BET3C9S]
CC50 at 24 h [1]: 81.6 µM
EC50 (HIV-1 (YU-2)): 6.12 µM
EC50 (SARS-CoV-2 (Omicron)): > 104 µM
EC50 (SARS-CoV-2 (Alpha)): 1.1 µM
EC50 (HSV-2; Human alphaherpesvirus 2, Vero): 13.1 µM
CC50 (in vitro [2]): 17 µM
CC50 at 6 h [3]: 29.7 µM

O=S(=O)(O)OCCCCCCCCCCn1cc(COc2cc(OCc3cn(CCCCCCCCCCOS(=O)(=O)O)nn3)cc(OCc3cn(CCCCCCCCCCOS(=O)(=O)O)nn3)c2)nn1 [BTA3C10S]
CC50 at 24 h [1]: > 371 µM
EC50 (HIV-1 (YU-2)): 5.25 µM
EC50 (SARS-CoV-2 (Alpha)): > 93 µM
CC50 (in vitro [6]): > 930 µM
EC50 (HSV-2; Human alphaherpesvirus 2, Vero): 17.1 µM
EC50 [7]: 22.9 µM
CC50 (in vitro [2]): > 929 µM
CC50 at 6 h [3]: > 93 µM

O=S(=O)(O)OCCCCCCCCCCO[C@H]1[C@H](OS(=O)(=O)O)[C@H](OCCCCCCCCCCOS(=O)(=O)O)[C@H](OS(=O)(=O)O)[C@@H](OCCCCCCCCCCOS(=O)(=O)O)[C@@H]1OS(=O)(=O)O [I3C10S]
CC50 at 24 h [1]: > 359 µM
EC50 (SARS-CoV-2 (Alpha)): 458 µM
EC50 (HSV-2; Human alphaherpesvirus 2, Vero): 163 µM
CC50 (in vitro [2]): > 356 µM

O=S(=O)(O)OCCCCCCCCCSCc1cccc(CSCCCCCCCCCOS(=O)(=O)O)c1CSCCCCCCCCCOS(=O)(=O)O [OB3C9S]
CC50 at 24 h [1]: 135 µM
EC50 (SARS-CoV-2 (Alpha)): 1.4 µM
EC50 (HSV-2; Human alphaherpesvirus 2, Vero): 18 µM
CC50 (in vitro [2]): 18.4 µM

O=S(=O)(O)OCCCCCCCCCSCC(COS(=O)(=O)O)(COS(=O)(=O)O)CSCCCCCCCCCOS(=O)(=O)O [P2C9S]
EC50 (SARS-CoV-2 (Alpha)): > 1300 µM
EC50 (HSV-2; Human alphaherpesvirus 2, Vero): 326 µM
CC50 (in vitro [2]): > 1300 µM

O=S(=O)(O)OCCCCCCCCCSCC(COS(=O)(=O)O)(CSCCCCCCCCCOS(=O)(=O)O)CSCCCCCCCCCOS(=O)(=O)O [P3C9S]
CC50 at 24 h [1]: 522 µM
EC50 (SARS-CoV-2 (Omicron)): > 1080 µM
EC50 (SARS-CoV-2 (Alpha)): 10.3 µM
EC50 (HSV-2; Human alphaherpesvirus 2, Vero): 24.4 µM
CC50 (in vitro [2]): 413 µM

O=S(=O)(O)OCCCCCCCCCSCC(CSCCCCCCCCCOS(=O)(=O)O)(CSCCCCCCCCCOS(=O)(=O)O)CSCCCCCCCCCOS(=O)(=O)O [P4C9S]
CC50 at 2 days [4]: > 276 µM
CC50 at 24 h [1]: 185 µM
CC50 at 2 days [5]: 122 µM
EC50 (HIV-1 (YU-2)): 1.94 µM
EC50 (SARS-CoV-2 (Alpha)): 0.48 µM
EC50 (GFP-EBV B95-8 (EBV)): 33.9 µM
EC50 (GFP-KSHV (KSHV)): 20.8 µM
EC50 (HSV-2; Human alphaherpesvirus 2, Vero): 6.5 µM
EC50 (HSV-2): 6.48 µM
CC50 (in vitro [2]): 4 µM
CC50 at 6 h [3]: 18.4 µM

CC(C)(C)[C@H](NC(=O)C(F)(F)F)C(=O)N1C[C@H]2[C@@H]([C@H]1C(=O)N[C@H](C#N)C[C@@H]1CCNC1=O)C2(C)C [nirmatrelvir, reference compound]
viral RNA levels in oral swab vs untreated (SARS-CoV-2 Alpha; […], nirmatrelvir 250 mg/kg orally, P = 0.0021): significantly lower viral RNA levels
viral RNA copies in lung vs untreated (SARS-CoV-2 Alpha; […], nirmatrelvir 250 mg/kg orally, P = 0.0031): significantly decreased viral RNA copies
infectious viral titer (TCID50) in the lungs vs untreated (SARS-CoV-2 Alpha; […], nirmatrelvir 250 mg/kg orally, P = 0.0066): significantly decreased the viral titer
infectious viral titer (TCID50) in the lungs vs untreated (SARS-CoV-2 Alpha; […], nirmatrelvir 250 mg/kg orally, P = 0.012): significantly decreased the viral titer
infectious viral titer (TCID50) in the lungs vs untreated (SARS-CoV-2 Alpha; […], nirmatrelvir 250 mg/kg orally, P = 0.079): no significant difference
histopathological evaluation of lung tissues (SARS-CoV-2 Alpha; nirmatrelvir 250 mg/kg orally): improved pulmonary conditions
severe lung damage (histopathology categories E and F) (SARS-CoV-2 Alpha; nirmatrelvir 250 mg/kg orally, P = 0.03): reducing severe lung damage
